In US12344610B2, “APOL1 inhibitors and methods of use” (Maze Therapeutics, Inc., priority 2022, dated 2025) one finds EC50 data, which are given here for 15 compounds.

Molecules are shown by their SMILES. Some results are limits rather than exact numbers.

For test [1], the system named is HEK293 clonal cell line overexpressing APOL1 G1. Put plainly: APOL1 G1 HEK293 cell rescue assay (Example B3). In kind it is cell-based. To be noted: geometric mean of at least 2 runs, † = single run, ¥ = concentration at 50% rescue estimated (no sigmoidal curve). The method, then:
Compounds were also assayed in a HEK293 clonal cell line overexpressing APOL1 G1 by a method similar to that shown in Example B2 above.
Unless otherwise specified, EC50 values are reported as the geometric mean of at least 2 assay runs on separate days. Each run represents the average of a technical replicate, where each compound was assayed twice in the same plate. A superscript † symbol indicates a value from the average of a technical replicate from a single assay run, where each compound was assayed twice in the same plate. A ¥ symbol represents compound concentration at 50% rescue estimated due to lack of sigmoidal curve preventing curve fitting. Compounds in Table 41 are referred to by the corresponding Compound Number in Table 1, which is also referred to in the synthetic examples. When one or more of the numbered compounds are identified by stereochemistry (for example, (R)- or (S)-), the specific stereoisomer for which data is provided in Table 41 may be identified by the elution order of such compound as described in the synthetic examples. Absolute stereochemistry of such compounds may be identified by methods known in the art. For Table 41 below, n/a represents “not available”.
Rescue EC50 values reported in Table 41 below represent the half-maximal effective concentration for reversal of cell death caused by overexpression of APOL1.

The test system of test [2] is HEK293 cells overexpressing APOL1 G2. Put plainly: APOL1 G2 HEK293 cell rescue assay (reversal of cell death caused by overexpression of APOL1). To be noted: geometric mean of at least 2 assay runs, † = single assay run. The class given is cell-based. The method, then: Unless otherwise specified, EC50 values are reported as the geometric mean of at least 2 assay runs on separate days. Each run represents the average of a technical replicate, where each compound was assayed twice in the same plate. A superscript t symbol indicates a value from the average of a technical replicate from a single assay run, where each compound was assayed twice in the same plate. Compounds in Table 40 are referred to by the corresponding Compound Number in Table 1, which is also referred to in the synthetic examples. When one or more of the numbered compounds are identified by stereochemistry (for example, (R)- or (S)-), the specific stereoisomer for which data is provided in Table 40 may be identified by the elution order of such compound as described in the synthetic examples. Absolute stereochemistry of such compounds may be identified by methods known in the art. For Table 40 below, n/a represents “not available”.
Rescue EC50 values reported in Table 40 below represent the half-maximal effective concentration for reversal of cell death caused by overexpression of APOL1.

The mark [3] stands for this setting: Homo sapiens, HEK293, HEK293 clonal line overexpressing APOL1 G1.
Where [4] appears, read: Homo sapiens, HEK293, HEK293 overexpressing APOL1 G2.
Setting [5] is: HEK293 clonal line overexpressing APOL1 G1.

As usually defined, the EC50 is the midpoint of the concentration-response curve. Take `C[C@]1(O)C[C@@H](n2cnc3cc(OCCN4CCC5(CC4)C(=O)Nc4ccc(Cl)cc45)ccc32)C1` [Compound 351, 5-chloro-1′-[2-({1-[(cis)-3-hydroxy-3-methylcyclobutyl]-1H-1,3-benzodiazol-5-yl}oxy)ethyl]-1,2-dihydrospiro[indole-3,4′-piperidin]-2-one]: the figures for the EC50 in test [1] (setting [3]) and in test [2] (setting [4]) were 299 nM and 166 nM, respectively.
Take `CC(COc1ccc(S(C)(=O)=O)cc1)N1CCC2(CC1)C(=O)N(C1CC(O)C1)c1ccc(Cl)cc12` (single isomer, unassigned) [Compound 207, 5-chloro-1′-[(2S) or (2R)-1-(4-methanesulfonylphenoxy)propan-2-yl]-1-[(trans) or (cis)-3-hydroxycyclobutyl]-1,2-dihydrospiro[indole-3,4′-piperidin]-2-one]: the EC50 in test [1] (setting [5]) and in test [2] (HEK293 overexpressing APOL1 G2) was > 10000 nM throughout.
For the compound `CCC1(O)CC(N2C(=O)CCc3cc(OCCN4CCC5(CC4)C(=O)Nc4ccc(Cl)cc45)cnc32)C1` (stereo not drawn) [Compound 318], the EC50 in test [1] (setting [3]) was 65.9 nM; in test [2] (setting [4]) it was 23.2 nM.
The corresponding values for `CS(=O)(=O)N1CCC(c2ccc(OCCN3CCC4(CC3)C(=O)Nc3ccc(Cl)cc34)cc2)CC1` [Compound 444, 5-chloro-1′-{2-[4-(1-methanesulfonylpiperidin-4-yl)phenoxy]ethyl}-1,2-dihydrospiro[indole-3,4′-piperidin]-2-one] are 72.3 nM and 22.4 nM.
In the case of `O=C1Nc2ccc(Cl)cc2C12CCN(CCOc1cnc(C(O)CO)nc1)CC2` (single isomer, unassigned) [Compound 379, 5-chloro-1′-[2-({2-[(1R or 1S)-1,2-dihydroxyethyl]pyrimidin-5-yl}oxy)ethyl]-1,2-dihydrospiro[indole-3,4′-piperidin]-2-one], the EC50 is > 10000 nM in test [1] (setting [5]) and 842 nM in test [2] (HEK293 overexpressing APOL1 G2).
`O=C1CCc2cc(OCCN3CCC4(CC3)C(=O)Nc3ccc(Cl)cc34)cnc2N1` [Compound 293, 5-chloro-1′-{2-[(7-oxo-5,6,7,8-tetrahydro-1,8-naphthyridin-3-yl)oxy]ethyl}-1,2-dihydrospiro[indole-3,4′-piperidin]-2-one]: the EC50 in test [1] (setting [3]) is 193 nM; in test [2] (setting [4]), 294 nM.
Turning to `CC(O)c1ncc(OCCN2CCC3(CC2)C(=O)Nc2ccc(C#N)cc23)cc1C(F)(F)F` (stereo not drawn) [Compound 338, 1′-(2-{[6-(1-hydroxyethyl)-5-(trifluoromethyl)pyridin-3-yl]oxy}ethyl)-2-oxo-1,2-dihydrospiro[indole-3,4′-piperidine]-5-carbonitrile], the EC50 in test [1] (setting [3]) is 213 nM; in test [2] (setting [4]), 99.4 nM.
On to `CN1C(=O)C2(CCN(CCOc3ccc(C4(S(C)(=O)=O)CC(O)C4)cc3)CC2)c2cc(C(F)F)ccc21` (stereo not drawn) [Compound 277, 5-(difluoromethyl)-1′-{2-[4-(3-hydroxy-1-methanesulfonylcyclobutyl)phenoxy]ethyl}-1-methyl-1,2-dihydrospiro[indole-3,4′-piperidin]-2-one], for which the EC50 in test [1] (setting [3]) is 117 nM; in test [2] (setting [4]) it was 34 nM.
Regarding `C[C@]1(O)C[C@@H](N2C(=O)CCc3cc(OCCN4CCC5(CC4)C(=O)Nc4c(Cl)cc(Cl)cc45)cnc32)C1` [Compound 409, 5,7-dichloro-1′-[2-({7-oxo-8-[(cis)-3-hydroxy-3-methylcyclobutyl]-5,6,7,8-tetrahydro-1,8-naphthyridin-3-yl}oxy)ethyl]-1,2-dihydrospiro[indole-3,4′-piperidin]-2-one], the EC50 was 136 nM in test [1] (setting [3]) and 70.2 nM in test [2] (setting [4]).
The corresponding values for `C[C@]1(O)C[C@@H](N2C(=O)NCc3cc(OCCN4CCC5(CC4)C(=O)Nc4ccc(C#N)cc45)cc(C(F)(F)F)c32)C1` [Compound 457, 2-oxo-1′-[2-({2-oxo-1-[(cis)-3-hydroxy-3-methylcyclobutyl]-8-(trifluoromethyl)-1,2,3,4-tetrahydroquinazolin-6-yl}oxy)ethyl]-1,2-dihydrospiro[indole-3,4′-piperidine]-5-carbonitrile] are > 3300 nM and 278 nM.
The corresponding values for `CC1(O)CC(n2ncc3cc(OCCN4CCC5(CC4)C(=O)Nc4ccc(C#N)cc45)cnc32)C1` (stereo not drawn) [Compound 436, 1′-(2-{[1-(3-hydroxy-3-methylcyclobutyl)-1H-pyrazolo[3,4-b]pyridin-5-yl]oxy}ethyl)-2-oxo-1,2-dihydrospiro[indole-3,4′-piperidine]-5-carbonitrile] are 114 nM and 80.1 nM.
In the case of `O=C1Nc2ccc(Cl)cc2C12CCN(CCOc1cnc(C(O)CO)nc1)CC2` (stereo not drawn) [Compound 330, 5-chloro-1′-(2-{[2-(1,2-dihydroxyethyl)pyrimidin-5-yl]oxy}ethyl)-1,2-dihydrospiro[indole-3,4′-piperidin]-2-one], the EC50 was ~1500 nM in test [1] (setting [3]) and 668 nM in test [2] (setting [4]).
For `CC(O)c1ncc(OCCN2CCC3(CC2)C(=O)Nc2ccc(Cl)cc23)cc1C(F)(F)F` (stereo not drawn) [Compound 399, 5-chloro-1′-(2-{[6-(1-hydroxyethyl)-5-(trifluoromethyl)pyridin-3-yl]oxy}ethyl)-1,2-dihydrospiro[indole-3,4′-piperidin]-2-one] the same measures were 117 nM and 49.8 nM.
As for `C[C@]1(O)C[C@H](n2ncc3cc(OCCN4CCC5(CC4)C(=O)Nc4ccc(C#N)cc45)cnc32)C1` [Compound 438, 2-oxo-1′-[2-({1-[(trans)-3-hydroxy-3-methylcyclobutyl]-1H-pyrazolo[3,4-b]pyridin-5-yl}oxy)ethyl]-1,2-dihydrospiro[indole-3,4′-piperidine]-5-carbonitrile], the EC50 in test [1] (setting [3]) was 242 nM; in test [2] (setting [4]) it was 204 nM.
Take `[2H]C([2H])([2H])N1C(=O)C2(CCN(CCOc3cnc(C4(S(C)(=O)=O)COC4)nc3)CC2)c2cc(Cl)ccc21` [Compound 422, 5-chloro-1′-(2-{[2-(3-methanesulfonyloxetan-3-yl)pyrimidin-5-yl]oxy}ethyl)-1-(^2H3)methyl-1,2-dihydrospiro[indole-3,4′-piperidin]-2-one]: the EC50 in test [1] (setting [3]) was 165 nM; in test [2] (setting [4]) it was 63.5 nM.
